± gives the expanded uncertainty stated by the source. One block for each compound: values may come before it.
Tests used:
[1] = 298.15 K, Liquid; for viscosity: Capillary tube (Ostwald / Ubbelohde) method
[2] = 298.15 K; 101.7 kPa; Liquid mixture 1; Pendant drop shape

Compound: Cc1ccccc1 [toluene]
viscosity ([1]; 101 kPa): 0.554 ± 0.04 mPa·s
mass density ([1]; 101.7 kPa, Vibrating tube method): 860.8 ± 2 kg/m3

Compound: Cc1ccccc1 [toluene] + O
interfacial tension [2]: 36.2 ± 3.6 mN/m

viscosity ([1]; 101.7 kPa): 0.8958 ± 0.041 mPa·s
Compound: O [water]

— the NIST ThermoML archive (doi:10.1021/acs.jced.7b00505)
